# Data published in paper PMC7241567 (Journal of Enzyme Inhibition and Medicinal Chemistry, 2020).
# Numbering of substitutions follows the chain as printed. pIC50: −log10 of the molar value. Entries after “also recorded” stand apart in the source; their conditions may differ.
# Legend:
# Format in all cases: biochemical
# ABL1 = target: T1, ABL1 (Homo sapiens, UniProt P00519); test: Reaction Biology Kinase HotSpot radiometric kinase assay
# T1 construct: purchased Reaction Biology Corp. (Kinase HotSpot service)
# AXL = target: T2, AXL (Homo sapiens, UniProt P30530); test: as above
# T2 construct: purchased Reaction Biology Corp. (Kinase HotSpot service)
# SYK = target: T3, SYK (Homo sapiens, UniProt P43405); test: as above
# T3 construct: purchased Reaction Biology Corp. (Kinase HotSpot service)
# CAMKK1 = target: T4, CAMKK1 (Homo sapiens, UniProt Q8N5S9); test: as above
# T4 construct: purchased Reaction Biology Corp. (Kinase HotSpot service)
# FLT1/VEGFR1 = target: T5, FLT1/VEGFR1 (Homo sapiens, UniProt P17948); test: as above
# T5 construct: purchased Reaction Biology Corp. (Kinase HotSpot service)
# FLT3-ITD = FLT3-ITD (Homo sapiens, UniProt P36888, ITD); test: as above
# Aurora A = target: T6, Aurora A (Homo sapiens, UniProt O14965); test: as above
# T6 construct: purchased Reaction Biology Corp. (Kinase HotSpot service)
# FLT3 (D835Y) = target: T7, FLT3 (D835Y) (Homo sapiens, UniProt P36888, D835Y); test: Enzymatic activity against FLT3 mutants
# T7 construct: purchased Reaction Biology Corp. (Kinase HotSpot service)
# T7 sequence (P36888 27-993 D835Y): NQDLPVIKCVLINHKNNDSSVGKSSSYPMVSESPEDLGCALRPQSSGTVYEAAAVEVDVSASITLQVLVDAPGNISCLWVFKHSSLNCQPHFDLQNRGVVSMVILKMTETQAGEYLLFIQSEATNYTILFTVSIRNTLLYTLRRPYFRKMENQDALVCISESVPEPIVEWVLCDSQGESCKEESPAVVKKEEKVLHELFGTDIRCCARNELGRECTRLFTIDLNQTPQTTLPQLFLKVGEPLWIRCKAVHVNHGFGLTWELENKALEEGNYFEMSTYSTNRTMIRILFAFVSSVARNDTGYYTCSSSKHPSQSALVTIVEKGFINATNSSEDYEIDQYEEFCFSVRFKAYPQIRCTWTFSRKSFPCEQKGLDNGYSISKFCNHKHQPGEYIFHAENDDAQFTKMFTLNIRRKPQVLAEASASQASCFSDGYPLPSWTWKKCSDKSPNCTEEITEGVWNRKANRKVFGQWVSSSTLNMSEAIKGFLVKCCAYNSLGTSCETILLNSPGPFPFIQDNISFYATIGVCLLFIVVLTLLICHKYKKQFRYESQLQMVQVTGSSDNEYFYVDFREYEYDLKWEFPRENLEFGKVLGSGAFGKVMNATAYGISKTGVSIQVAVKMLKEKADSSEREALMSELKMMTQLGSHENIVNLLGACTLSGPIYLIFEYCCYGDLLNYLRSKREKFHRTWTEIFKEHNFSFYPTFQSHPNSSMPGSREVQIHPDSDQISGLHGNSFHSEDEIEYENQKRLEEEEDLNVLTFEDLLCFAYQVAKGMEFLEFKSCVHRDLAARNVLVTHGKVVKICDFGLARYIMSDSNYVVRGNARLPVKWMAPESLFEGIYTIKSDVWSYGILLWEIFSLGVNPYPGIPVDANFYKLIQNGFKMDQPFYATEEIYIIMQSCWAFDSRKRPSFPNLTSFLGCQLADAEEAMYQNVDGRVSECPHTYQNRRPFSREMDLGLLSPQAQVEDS
# PLK1 = target: T8, PLK1 (Homo sapiens, UniProt P53350); test: Reaction Biology Kinase HotSpot radiometric kinase assay
# T8 construct: purchased Reaction Biology Corp. (Kinase HotSpot service)
# [1] = target: T9, FLT3 (Y591_V592 ins VDFREYEYD) (Homo sapiens, UniProt P36888, INS591VDFREYEYD); test: Enzymatic activity against FLT3 mutants
# T9 construct: purchased Reaction Biology Corp. (Kinase HotSpot service)
# P38a/MAPK14 = P38a/MAPK14 (Homo sapiens, UniProt Q16539); test: Reaction Biology Kinase HotSpot radiometric kinase assay
# FLT3 = target: T10, FLT3 (Homo sapiens, UniProt P36888); test: as above
# T10 construct: purchased Reaction Biology Corp. (Kinase HotSpot service)
# T10 sequence (P36888 27-993): T7 sequence (P36888 27-993 D835Y) with Y809D
# LYN = target: T11, LYN (Homo sapiens, UniProt P07948); test: as above
# T11 construct: purchased Reaction Biology Corp. (Kinase HotSpot service)
# c-Kit = target: T12, c-Kit (Homo sapiens, UniProt P10721); test: as above
# T12 construct: purchased Reaction Biology Corp. (Kinase HotSpot service)
# c-MET = target: T13, c-MET (Homo sapiens, UniProt P08581); test: as above
# T13 construct: purchased Reaction Biology Corp. (Kinase HotSpot service)
# FGFR3 = target: T14, FGFR3 (Homo sapiens, UniProt P22607); test: as above
# T14 construct: purchased Reaction Biology Corp. (Kinase HotSpot service)
# BRAF (V599E) = target: T15, BRAF (V599E) (Homo sapiens, UniProt P15056, V600E); test: as above
# T15 construct: purchased Reaction Biology Corp. (Kinase HotSpot service)
# T15 sequence (P15056 416-766 V600E limits assumed): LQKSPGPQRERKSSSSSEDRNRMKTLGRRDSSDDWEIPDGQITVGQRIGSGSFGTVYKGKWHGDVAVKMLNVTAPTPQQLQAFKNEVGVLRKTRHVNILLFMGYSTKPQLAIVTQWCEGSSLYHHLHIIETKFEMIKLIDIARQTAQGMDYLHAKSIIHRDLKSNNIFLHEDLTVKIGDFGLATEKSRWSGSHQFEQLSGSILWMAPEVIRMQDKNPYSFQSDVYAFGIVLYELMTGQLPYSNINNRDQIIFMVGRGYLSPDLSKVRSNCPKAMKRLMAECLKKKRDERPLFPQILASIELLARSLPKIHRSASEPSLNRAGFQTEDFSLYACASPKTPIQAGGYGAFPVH
# T6 sequence (O14965 whole entry): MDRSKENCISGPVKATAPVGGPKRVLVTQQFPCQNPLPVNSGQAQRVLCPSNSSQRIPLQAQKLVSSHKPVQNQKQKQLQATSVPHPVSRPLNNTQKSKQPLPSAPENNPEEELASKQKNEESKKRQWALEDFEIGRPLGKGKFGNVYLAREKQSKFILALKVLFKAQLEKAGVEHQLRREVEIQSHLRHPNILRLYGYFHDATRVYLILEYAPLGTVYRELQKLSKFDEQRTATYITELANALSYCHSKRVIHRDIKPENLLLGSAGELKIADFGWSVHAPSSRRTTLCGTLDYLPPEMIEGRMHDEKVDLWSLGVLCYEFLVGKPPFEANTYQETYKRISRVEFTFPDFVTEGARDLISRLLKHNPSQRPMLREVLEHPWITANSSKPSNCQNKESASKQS
# Sequence of P38a/MAPK14 (Q16539 whole entry): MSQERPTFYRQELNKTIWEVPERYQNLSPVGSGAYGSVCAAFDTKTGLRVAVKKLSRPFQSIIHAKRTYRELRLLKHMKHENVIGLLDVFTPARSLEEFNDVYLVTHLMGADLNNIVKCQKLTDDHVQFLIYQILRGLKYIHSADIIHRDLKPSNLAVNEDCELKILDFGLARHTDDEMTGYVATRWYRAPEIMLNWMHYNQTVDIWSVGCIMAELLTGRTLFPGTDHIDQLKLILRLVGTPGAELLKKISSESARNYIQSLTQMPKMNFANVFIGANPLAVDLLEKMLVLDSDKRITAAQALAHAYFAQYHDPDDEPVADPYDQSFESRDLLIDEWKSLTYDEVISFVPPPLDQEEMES
# T2 sequence (P30530 26-894): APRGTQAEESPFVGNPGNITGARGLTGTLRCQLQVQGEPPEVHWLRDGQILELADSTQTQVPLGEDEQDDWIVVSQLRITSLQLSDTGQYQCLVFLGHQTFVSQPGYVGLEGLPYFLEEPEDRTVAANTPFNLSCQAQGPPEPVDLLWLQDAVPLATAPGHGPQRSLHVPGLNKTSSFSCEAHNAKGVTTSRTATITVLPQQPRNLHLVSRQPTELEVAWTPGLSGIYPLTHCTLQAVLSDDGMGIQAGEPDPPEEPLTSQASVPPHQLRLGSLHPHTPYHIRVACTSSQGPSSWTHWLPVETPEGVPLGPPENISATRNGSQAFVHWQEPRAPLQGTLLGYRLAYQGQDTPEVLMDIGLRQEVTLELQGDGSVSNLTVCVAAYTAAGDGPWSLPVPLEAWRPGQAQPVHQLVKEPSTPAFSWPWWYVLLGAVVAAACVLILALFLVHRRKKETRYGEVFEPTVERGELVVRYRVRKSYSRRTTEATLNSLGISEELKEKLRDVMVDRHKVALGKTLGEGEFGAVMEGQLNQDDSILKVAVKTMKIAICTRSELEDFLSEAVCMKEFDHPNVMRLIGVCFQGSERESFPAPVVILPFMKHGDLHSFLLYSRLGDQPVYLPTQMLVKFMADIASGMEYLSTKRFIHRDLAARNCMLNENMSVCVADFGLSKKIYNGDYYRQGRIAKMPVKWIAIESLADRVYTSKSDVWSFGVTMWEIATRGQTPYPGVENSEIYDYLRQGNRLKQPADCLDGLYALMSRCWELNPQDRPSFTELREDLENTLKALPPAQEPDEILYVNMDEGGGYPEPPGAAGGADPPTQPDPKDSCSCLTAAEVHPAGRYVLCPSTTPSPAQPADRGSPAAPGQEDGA
# T5 sequence (P17948 27-1338): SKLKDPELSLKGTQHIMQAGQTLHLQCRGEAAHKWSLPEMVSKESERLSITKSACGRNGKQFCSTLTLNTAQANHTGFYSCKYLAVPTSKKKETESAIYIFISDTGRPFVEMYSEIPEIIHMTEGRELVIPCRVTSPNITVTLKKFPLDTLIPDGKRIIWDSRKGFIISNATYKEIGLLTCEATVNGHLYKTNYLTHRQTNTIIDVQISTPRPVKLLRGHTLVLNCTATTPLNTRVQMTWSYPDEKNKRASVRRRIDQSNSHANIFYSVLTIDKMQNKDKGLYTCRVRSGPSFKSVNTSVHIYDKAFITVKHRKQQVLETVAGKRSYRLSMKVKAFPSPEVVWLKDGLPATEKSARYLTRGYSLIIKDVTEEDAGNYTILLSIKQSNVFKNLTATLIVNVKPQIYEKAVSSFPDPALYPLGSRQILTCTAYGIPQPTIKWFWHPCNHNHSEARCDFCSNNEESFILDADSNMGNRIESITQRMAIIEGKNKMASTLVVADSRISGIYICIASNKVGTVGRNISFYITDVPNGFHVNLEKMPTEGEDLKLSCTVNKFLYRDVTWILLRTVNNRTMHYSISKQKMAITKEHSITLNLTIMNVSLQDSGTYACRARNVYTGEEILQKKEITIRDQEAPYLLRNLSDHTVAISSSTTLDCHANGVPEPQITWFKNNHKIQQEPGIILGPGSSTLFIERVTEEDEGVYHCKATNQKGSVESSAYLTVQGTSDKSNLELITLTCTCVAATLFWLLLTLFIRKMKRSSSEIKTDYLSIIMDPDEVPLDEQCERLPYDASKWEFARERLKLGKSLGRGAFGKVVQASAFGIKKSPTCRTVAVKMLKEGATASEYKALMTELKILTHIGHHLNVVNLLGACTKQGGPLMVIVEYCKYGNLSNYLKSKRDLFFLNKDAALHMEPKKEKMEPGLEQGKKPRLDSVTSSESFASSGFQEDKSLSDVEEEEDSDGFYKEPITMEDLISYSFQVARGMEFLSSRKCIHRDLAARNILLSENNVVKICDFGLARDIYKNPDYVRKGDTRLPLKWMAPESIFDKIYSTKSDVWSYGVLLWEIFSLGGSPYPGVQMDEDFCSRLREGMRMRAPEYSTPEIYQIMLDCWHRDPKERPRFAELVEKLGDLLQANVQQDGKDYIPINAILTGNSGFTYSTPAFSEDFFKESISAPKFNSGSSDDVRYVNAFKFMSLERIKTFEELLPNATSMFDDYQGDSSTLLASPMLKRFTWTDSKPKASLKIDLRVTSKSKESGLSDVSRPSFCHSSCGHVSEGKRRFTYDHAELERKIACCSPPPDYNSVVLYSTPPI
# T11 sequence (P07948 whole entry): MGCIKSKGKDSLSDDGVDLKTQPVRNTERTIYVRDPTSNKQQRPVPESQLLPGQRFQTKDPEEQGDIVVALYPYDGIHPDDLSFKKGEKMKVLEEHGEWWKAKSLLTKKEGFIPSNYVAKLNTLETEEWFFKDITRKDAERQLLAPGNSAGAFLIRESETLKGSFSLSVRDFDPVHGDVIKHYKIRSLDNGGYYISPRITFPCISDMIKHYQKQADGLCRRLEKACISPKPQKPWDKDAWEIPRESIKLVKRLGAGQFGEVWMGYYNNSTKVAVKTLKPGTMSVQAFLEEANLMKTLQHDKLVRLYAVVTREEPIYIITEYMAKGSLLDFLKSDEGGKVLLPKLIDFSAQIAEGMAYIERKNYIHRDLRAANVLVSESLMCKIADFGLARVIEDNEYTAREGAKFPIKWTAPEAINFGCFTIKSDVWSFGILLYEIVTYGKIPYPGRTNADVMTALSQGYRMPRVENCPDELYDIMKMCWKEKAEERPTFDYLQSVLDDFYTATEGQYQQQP
# T4 sequence (Q8N5S9 whole entry): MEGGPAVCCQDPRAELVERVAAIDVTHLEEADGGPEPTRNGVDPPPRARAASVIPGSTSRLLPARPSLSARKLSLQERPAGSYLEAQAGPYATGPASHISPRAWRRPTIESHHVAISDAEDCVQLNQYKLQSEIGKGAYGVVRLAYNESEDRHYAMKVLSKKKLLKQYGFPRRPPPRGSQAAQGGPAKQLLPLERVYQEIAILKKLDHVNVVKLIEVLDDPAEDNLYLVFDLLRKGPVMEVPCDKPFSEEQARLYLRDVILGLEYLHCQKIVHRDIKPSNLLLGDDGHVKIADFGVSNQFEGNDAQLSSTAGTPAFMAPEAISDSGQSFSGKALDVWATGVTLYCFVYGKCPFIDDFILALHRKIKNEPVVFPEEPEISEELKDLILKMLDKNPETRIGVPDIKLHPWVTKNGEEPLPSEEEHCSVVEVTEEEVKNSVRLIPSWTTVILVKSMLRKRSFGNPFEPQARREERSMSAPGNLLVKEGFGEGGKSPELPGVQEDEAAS
# T8 sequence (P53350 whole entry): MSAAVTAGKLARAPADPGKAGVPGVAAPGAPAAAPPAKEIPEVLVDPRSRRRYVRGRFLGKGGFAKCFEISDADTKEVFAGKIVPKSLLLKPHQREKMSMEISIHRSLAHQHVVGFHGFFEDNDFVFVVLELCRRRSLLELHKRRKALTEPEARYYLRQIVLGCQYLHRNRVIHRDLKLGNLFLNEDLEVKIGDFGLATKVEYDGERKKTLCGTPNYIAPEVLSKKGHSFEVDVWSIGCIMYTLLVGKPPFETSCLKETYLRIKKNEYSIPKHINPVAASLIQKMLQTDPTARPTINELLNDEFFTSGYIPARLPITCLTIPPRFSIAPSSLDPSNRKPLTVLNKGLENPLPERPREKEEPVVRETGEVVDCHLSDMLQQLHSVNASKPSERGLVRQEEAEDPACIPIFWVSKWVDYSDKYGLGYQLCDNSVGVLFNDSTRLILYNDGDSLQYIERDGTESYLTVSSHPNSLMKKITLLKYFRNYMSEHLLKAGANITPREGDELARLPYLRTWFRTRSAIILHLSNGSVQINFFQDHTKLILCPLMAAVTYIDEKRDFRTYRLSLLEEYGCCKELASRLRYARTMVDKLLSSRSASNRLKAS
smiles,measurement,setting,value
"Cc1oncc1C(=O)Nc1ccc2cnc(-c3cc(N4CCN(C)CC4)cc(C(F)(F)F)c3)nc2c1 [Compound 7d, 5-methyl-N-(2-(3-(4-methylpiperazin-1-yl)-5-(trifluoromethyl)phenyl)quinazolin-7-yl)isoxazole-4-carboxamide]",inhibition at 10 µM,ABL1,6.46%
same,inhibition at 10 µM,AXL,21.2%
same,inhibition at 10 µM,SYK,22.4%
same,inhibition at 10 µM,CAMKK1,0%
same,inhibition at 10 µM,FLT1/VEGFR1,5.23%
same,inhibition at 10 µM,"FLT3-ITD; FLT3-ITD, 10 µM",95.2%
same,pIC50,FLT3-ITD; read-out: IC50 against FLT3-ITD,6.52
same,inhibition at 10 µM,Aurora A,20.1%
same,decrease of activity against FLT3-TKD (D835Y) compared to FLT3 wild type,FLT3 (D835Y),about 2 fold
same,pIC50,FLT3 (D835Y); FLT3 (D835Y),6.64
same,pIC50,FLT3 (D835Y); FLT3-TKD (D835Y),6.64
same,inhibition at 10 µM,PLK1,0%
same,pIC50,[1],6.14
same,inhibition at 10 µM,P38a/MAPK14,0%
same,inhibition at 10 µM,FLT3,96.6%
same,inhibitory activity towards FLT3 (in words),FLT3,maintained the activity; also recorded: maintained inhibitory activity
same,pIC50,"FLT3; FLT3 wild type, read-out: IC50 against FLT3",6.97
same,inhibition at 10 µM,LYN,20.5%
same,inhibition at 10 µM,c-Kit,0%
same,inhibition at 10 µM,c-MET,13.2%
same,inhibition at 10 µM,FGFR3,1%
same,inhibition at 10 µM,BRAF (V599E),5.19%
